Results taken from patent publication US11839607B2, “Memantine paroxetine cocrystal salt and its preparation method, pharmaceutical composition and application” (priority 2018, dated 2023).
Where two headings read alike, the source gives them in different places.

Assay: Pharmacokinetic experiment of memantine paroxetine cocrystal salt in rats (plasma memantine by LC-MS/MS)
Assay type: in vivo, SD rat
Settings: gavage
Text: Determination of the pharmacokinetic parameters of […] and paroxetine in rat plasma by LC-MS/MS method
The memantine paroxetine cocrystal salt prepared in embodiment 1; memantine hydrochloride; dexamethasone (Intermediate inspection office); ammonium formate; methanol is all chromatographic pure (Merck Company); formic acid is all chromatographic pure (Aladdin Company); acetonitrile is all chromatographic pure (Merck Company); experimental water is deionized purified water.
SD rat, SPF grade, male, weight 200-250 g, purchased from Zhejiang Experimental Animal Center, production license No.: SCXK (Zhejiang) 2014-0001.
Liquid mass spectrometer: Thermo Finnigan TSQ Quantum, composed of Surveyor As, Surveyor MS Pump Plus and TSQ Quantum, Thermo Fisher Scientific Company; Sartorius BP-211D electronic balance; Thermo STRATOS high speed freezing centrifuge; Eppendorf PCB-11 micro vortex mixer; Milli-Q Grandient pure water meter.
Chromatographic column: Waters Cortecs C18 (2.1 mm×50 mm, 2.7 μm); column temperature: 35° C.; mobile phase: acetonitrile-[…] ammonium formate containing 0.1% formic acid (10:90); flow rate: 0.2 mL·min^−1; sample injection volume: 5 μL.
Ion detection method: multiple reaction monitoring (MRM); ionic polarity: positive ion (Positive); ionization mode: electrospray ionization (ESI); ionization voltage (IS): 3000.0V; temperature: 300° C.; sheath gas: 35; auxiliary gas: 30.
10 rats are randomly divided into 2 groups, 5 rats in each group: group A: 5.6 mg/kg memantine hydrochloride; group B: 17.4 mg/kg cocrystal salt;
The rats are fasted for 12 h before the experiment, and the tested drugs re given by gavage with the volume of 1 mL/100 g. Before and 5, 10, 20, 40, 60, 120, 180, 240, 360 and 480 min after administration, 0.5 mL of blood is collected through the fundus vein plexus. Anticoagulate the heparin. Centrifugate at 4000 rpm for 10 min, and separate the plasma. It can be used for the determination of memantine concentration.

[1] = male SD rats, same molar dose: group A 5.6 mg/kg memantine hydrochloride, group B 17.4 mg/kg cocrystal salt, average value

SMILES | AUC(0-t) [1] | AUC(0-∞) [1] | CLz/F [1] | Cmax [1] | MRT(0-t) [1] | MRT(0-∞) [1] | T1/2z [1] | Tmax [1] | AUC(0-∞) ratio, cocrystal salt versus memantine hydrochloride (same molar dose, rats) | Cmax ratio, cocrystal salt versus memantine hydrochloride (same molar dose, rats) | T1/2 ratio, cocrystal salt versus memantine hydrochloride (same molar dose, rats) | Tmax ratio, cocrystal salt versus memantine hydrochloride (same molar dose, rats) | AUC(0-inf) (Sprague-Dawley (SD), rat, po, male SD rats, same molar dose: group A 5.6 mg/kg memantine hydrochloride, group B 17.4 mg/kg cocrystal salt, average value) | AUC(0-t) (Sprague-Dawley (SD), rat, po, male SD rats, same molar dose: group A 5.6 mg/kg memantine hydrochloride, group B 17.4 mg/kg cocrystal salt, average value, read-out: AUC(0-t)) | Cmax (Sprague-Dawley (SD), rat, po, male SD rats, same molar dose: group A 5.6 mg/kg memantine hydrochloride, group B 17.4 mg/kg cocrystal salt, average value, read-out: Cmax) | MRT last (Sprague-Dawley (SD), rat, po, male SD rats, same molar dose: group A 5.6 mg/kg memantine hydrochloride, group B 17.4 mg/kg cocrystal salt, average value, read-out: MRT(0-t)) | MRT inf (Sprague-Dawley (SD), rat, po, male SD rats, same molar dose: group A 5.6 mg/kg memantine hydrochloride, group B 17.4 mg/kg cocrystal salt, average value, read-out: MRT(0-∞)) | Tmax (Sprague-Dawley (SD), rat, po, male SD rats, same molar dose: group A 5.6 mg/kg memantine hydrochloride, group B 17.4 mg/kg cocrystal salt, average value, read-out: Tmax)
CC12CC3CC(C)(C1)CC(N)(C3)C2.Fc1ccc([C@@H]2CCNC[C@H]2COc2ccc3c(c2)OCO3)cc1.O.O.O.O=S(=O)(O)O [cocrystal salt, C19H20FNO3·C12H21N·H2SO4·3H2O] | 1.982124 ng·h/mL | 3.16723 ng·h/mL | 94414.6 mL/min/kg | 0.449186 ng/mL | 3.298 h | 8.1 h | 5.605 h | 0.868 h | 4.10 times | 1.62 times | 2.79 times | 1.41 times | – | – | – | – | – | –
CC12CC3CC(C)(C1)CC(N)(C3)C2.Cl [memantine hydrochloride, 3,5-Dimethyl-1-aminoadamantane hydrochloride, reference compound] | – | – | 123437.1 mL/min/kg | – | – | – | 2.009 h | – | – | – | – | – | 0.773 ng·h/mL | 0.714 ng·h/mL | 0.276 ng/mL | 2.43 h | 3.05 h | 0.617 h
